Experimental data published in patent publication US20090233950A1, “QUINAZOLINE DERIVATIVES” (priority 2006, published 2009).

Legend:
PDGFRβ = molecular target: T1, PDGFRβ (Homo sapiens, UniProt P09619); assay: In vitro phospho-Tyr751 PDGFRβ ELISA assay (Test (b)), MG63 osteosarcoma cells stimulated with PDGFBB; format: cell-based; conditions: read-out: IC50 versus phospho-Tyr751 formation in PDGFRβ
T1 construct: endogenous in cells; host or cells: MG63 osteosarcoma cells (ATCC)
Protocol: (b) In Vitro phospho-Tyr751 PDGFRβ ELISA Assay
This assay uses a conventional ELISA method to determine the ability of test compounds to inhibit phosphorylation of tyrosine in PDGFRβ.
An MG63 osteosarcoma cell line [American Type Culture Collection (ATCC) CCL 1427] was routinely maintained at 37° C. with 7.5% CO2 in Dulbecco's modified Eagle's growth medium (DMEM; Sigma-Aldrich; Catalogue No. D6546) containing 10% foetal calf serum (FCS; Sigma-Aldrich; Catalogue No. F7524) and 2 mM L-glutamine (Invitrogen Ltd., Paisley, UK; Catalogue No. 25030-024).
For the assay, the cells were detached from the culture flask using a trypsin/ethylenediaminetetraacetic acid (EDTA) mixture (Invitrogen Ltd.; Catalogue No. 15400-054) and resuspended in a test medium comprising DMEM without phenol red (Sigma-Aldrich; Catalogue No. D5921) containing 1% charcoal-stripped foetal calf serum (FCS) (Sigma-Aldrich; Catalogue No. F7524, stripped by incubation with dextran-coated activated charcoal at 55° C. for 30 minutes with continuous stirring followed by removal of the charcoal by centrifugation and filter sterilisation) and 2 mM L-glutamine (Invitrogen Ltd., Catalogue No. 25030-024) to give 6×10^4 cells per ml. Aliquots (100 μl) were seeded into each of the wells of columns […] (excluding column 1) and rows B-G (excluding rows A and H) of a clear 96 well tissue culture plate (Corning Life Sciences, Koolhovenlaan, The Netherlands; Catalogue No. 3595) to give a density of about 6000 cells per well. Aliquots (100 μl) of culture media were placed in the outer wells to minimise edge effects. The cells were incubated overnight at 37° C. with 7.5% CO2 to allow the cells to adhere to the wells.
Test compounds were prepared as 10 mM stock solutions in DMSO and serially diluted as required with DMSO to give a range of concentrations. Aliquots (3 μl) of each compound concentration were added to test medium (300 μl) to create a second dilution range. Aliquots (16 μl) of each resultant compound concentration were added to the cells in each well. “Maximum” control cells received a dilution of DMSO plus test medium only. “Minimum” control cells received a reference PDGFR inhibitor (16 μl). The cells were incubated for 90 minutes at 37° C. with 7.5% CO2.
The resultant cells were stimulated with PDGFBB using the following procedure. A lyophilised powder of PDGFBB, (Sigma-Aldrich; Catalogue No. P4306) was mixed with sterile water to provide a stock solution of 10 μg/ml of PDGFBB. A dilution of this stock solution into test medium provided a 182 ng/ml PDGFBB solution. Aliquots thereof (44 μl) were added to compound treated cells and to the “Maximum” control cells. The “Minimum” control cells received medium only. The cells were incubated at 37° C. with 7.5% CO2 for 5 minutes. The solution from the wells was removed and the cells were lysed by the addition of 120 μl/well of RIPA buffer comprising 60 mM tris(hydroxymethyl)aminomethane hydrochloride (Tris-HCl), 150 mM sodium chloride, 1 mM EDTA, 1% v/v Igepal CA-630, 0.25% sodium deoxycholate, 1% v/v phosphatase inhibitor cocktail 1 P2850, 1% phosphatase inhibitor cocktail 2 P5726 and 0.5% v/v protease inhibitor cocktail P8340 (all chemicals and inhibitor cocktails were obtainable from the Sigma-Aldrich Company Ltd.). The resultant tissue culture plates were shaken for 5 minutes at ambient temperature to ensure full lysis and then frozen at −20° C. until required. […]

KDR (VEGFR2) = molecular target: T2, KDR (VEGFR2) (Homo sapiens, UniProt P35968); assay: In vitro phospho-KDR ELISA assay (Test (c)), HUVECs stimulated with VEGF; format: cell-based; conditions: read-out: IC50 versus phospho-tyrosine formation in KDR
T2 construct: phosphorylation of KDR expressed in human umbilical vein endothelial cells (HUVECs); host or cells: HUVECs
Protocol: (c) In Vitro phospho-KDR ELISA Assay
This assay uses a conventional ELISA method to determine the ability of test compounds to inhibit phosphorylation of tyrosine in KDR (VEGFR2).
Human umbilical vein endothelial cells (HUVECs; PromoCell) were routinely incubated at 37° C. with 7.5% CO2 in ‘growth medium’ comprising MCDB 131 (Gibco Catalogue No. 10372-019; 500 ml) containing L-glutamine (Sigma Catalogue No. G3126; 0.848 g), 1% Penicillin Streptomycin (Gibco Catalogue No. 15140-122) and Fetal Bovine Serum (PAA Laboratories Catalogue No. A15-043; 50 ml).
For the assay, the cells were detached from the culture flask using a trypsin/ethylenediaminetetraacetic acid (EDTA) mixture (Invitrogen Ltd.; Catalogue No. 15400-054) and resuspended in ‘test medium’ comprising MCDB 131 (500 ml) containing L-glutamine (0.848 g), 1% Penicillin Streptomycin and Fetal Bovine Serum (10 ml). Aliquots (1 ml) were seeded into each well of a 24 well tissue culture plate (Corning Life Sciences; Catalogue No. 3527) to give a density of approximately 3.5×10^4 cells per well. The cells were incubated overnight at 37° C. with 7.5% CO2 to allow adherence to the well surface. The following morning the assay medium was decanted and an aliquot (0.5 ml) of ‘serum free medium’ comprising MCDB 131 (500 ml) containing L-glutamine (0.848 g) and 1% Penicillin Streptomycin was added to each well. The plates were incubated at 37° C. for 2.5 hours.
Test compounds were prepared as 10 mM stock solutions in DMSO and serially diluted with DMSO as required. Aliquots (3 μl) of each concentration of test compound were diluted with ‘serum free medium’ (300 μl). Aliquots (50 μl) of each resultant compound concentration were added to the cells in each well. “Maximum” control cells received only a dilution of DMSO whereas the “minimum” controls received a reference KDR inhibitor to give a final concentration of 1 μM. The cells were incubated for 90 minutes at 37° C. with 7.5% CO2.
The resultant cells were stimulated with VEGF using the following procedure. A lyophilised powder of VEGF (Sigma-Aldrich; Catalogue No. V7259) was mixed with PBS containing 0.1% filter-sterilised BSA (0.1% BSA/PBS) to provide a stock solution of 10 μg/ml of VEGF. A dilution of this stock solution into ‘serum free medium’ provided a 1000 ng/ml VEGF solution. Aliquots thereof (50 μl) were added to all wells. The cells were incubated at 37° C. with 7.5% CO2 for 5 minutes. The solution from the wells was removed and the cells were lysed by the addition of 100 μl/well of RIPA buffer comprising 60 mM Tris-HCl, 150 mM sodium chloride, 1 mM EDTA, 1% v/v Igepal CA-630, 0.25% sodium deoxycholate, 1% v/v phosphatase inhibitor cocktail 1 P2850, 1% phosphatase inhibitor cocktail 2 P5726 and 0.5% v/v protease inhibitor cocktail P8340. […]

T1 sequence (P09619 33-1106): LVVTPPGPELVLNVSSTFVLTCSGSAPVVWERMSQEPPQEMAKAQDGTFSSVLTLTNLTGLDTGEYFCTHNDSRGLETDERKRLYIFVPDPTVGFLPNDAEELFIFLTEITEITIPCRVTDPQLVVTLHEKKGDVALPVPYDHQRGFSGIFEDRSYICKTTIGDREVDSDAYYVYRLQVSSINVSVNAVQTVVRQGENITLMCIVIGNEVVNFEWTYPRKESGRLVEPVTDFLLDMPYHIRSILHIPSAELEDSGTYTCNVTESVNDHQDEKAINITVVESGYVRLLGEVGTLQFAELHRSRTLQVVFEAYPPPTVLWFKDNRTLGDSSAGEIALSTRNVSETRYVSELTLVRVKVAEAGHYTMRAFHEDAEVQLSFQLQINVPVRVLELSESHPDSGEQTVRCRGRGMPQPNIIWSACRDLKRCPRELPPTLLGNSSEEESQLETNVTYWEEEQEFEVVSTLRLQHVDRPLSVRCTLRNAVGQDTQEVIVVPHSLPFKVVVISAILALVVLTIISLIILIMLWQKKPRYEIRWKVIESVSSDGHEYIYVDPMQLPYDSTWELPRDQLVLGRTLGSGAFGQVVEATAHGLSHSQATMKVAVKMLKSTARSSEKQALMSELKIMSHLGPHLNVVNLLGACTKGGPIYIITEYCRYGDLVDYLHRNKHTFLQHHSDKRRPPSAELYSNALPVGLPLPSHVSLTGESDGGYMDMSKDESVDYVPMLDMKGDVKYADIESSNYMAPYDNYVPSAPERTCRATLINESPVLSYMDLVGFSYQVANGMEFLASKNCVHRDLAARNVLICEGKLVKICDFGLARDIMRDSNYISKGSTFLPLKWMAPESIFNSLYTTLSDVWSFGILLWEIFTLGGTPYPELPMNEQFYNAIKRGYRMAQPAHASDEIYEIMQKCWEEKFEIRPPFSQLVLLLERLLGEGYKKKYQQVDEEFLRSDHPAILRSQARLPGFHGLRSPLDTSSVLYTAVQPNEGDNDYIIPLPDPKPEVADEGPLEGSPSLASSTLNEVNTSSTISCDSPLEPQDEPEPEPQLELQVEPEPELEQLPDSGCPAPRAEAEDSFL
T2 sequence (P35968 20-1356): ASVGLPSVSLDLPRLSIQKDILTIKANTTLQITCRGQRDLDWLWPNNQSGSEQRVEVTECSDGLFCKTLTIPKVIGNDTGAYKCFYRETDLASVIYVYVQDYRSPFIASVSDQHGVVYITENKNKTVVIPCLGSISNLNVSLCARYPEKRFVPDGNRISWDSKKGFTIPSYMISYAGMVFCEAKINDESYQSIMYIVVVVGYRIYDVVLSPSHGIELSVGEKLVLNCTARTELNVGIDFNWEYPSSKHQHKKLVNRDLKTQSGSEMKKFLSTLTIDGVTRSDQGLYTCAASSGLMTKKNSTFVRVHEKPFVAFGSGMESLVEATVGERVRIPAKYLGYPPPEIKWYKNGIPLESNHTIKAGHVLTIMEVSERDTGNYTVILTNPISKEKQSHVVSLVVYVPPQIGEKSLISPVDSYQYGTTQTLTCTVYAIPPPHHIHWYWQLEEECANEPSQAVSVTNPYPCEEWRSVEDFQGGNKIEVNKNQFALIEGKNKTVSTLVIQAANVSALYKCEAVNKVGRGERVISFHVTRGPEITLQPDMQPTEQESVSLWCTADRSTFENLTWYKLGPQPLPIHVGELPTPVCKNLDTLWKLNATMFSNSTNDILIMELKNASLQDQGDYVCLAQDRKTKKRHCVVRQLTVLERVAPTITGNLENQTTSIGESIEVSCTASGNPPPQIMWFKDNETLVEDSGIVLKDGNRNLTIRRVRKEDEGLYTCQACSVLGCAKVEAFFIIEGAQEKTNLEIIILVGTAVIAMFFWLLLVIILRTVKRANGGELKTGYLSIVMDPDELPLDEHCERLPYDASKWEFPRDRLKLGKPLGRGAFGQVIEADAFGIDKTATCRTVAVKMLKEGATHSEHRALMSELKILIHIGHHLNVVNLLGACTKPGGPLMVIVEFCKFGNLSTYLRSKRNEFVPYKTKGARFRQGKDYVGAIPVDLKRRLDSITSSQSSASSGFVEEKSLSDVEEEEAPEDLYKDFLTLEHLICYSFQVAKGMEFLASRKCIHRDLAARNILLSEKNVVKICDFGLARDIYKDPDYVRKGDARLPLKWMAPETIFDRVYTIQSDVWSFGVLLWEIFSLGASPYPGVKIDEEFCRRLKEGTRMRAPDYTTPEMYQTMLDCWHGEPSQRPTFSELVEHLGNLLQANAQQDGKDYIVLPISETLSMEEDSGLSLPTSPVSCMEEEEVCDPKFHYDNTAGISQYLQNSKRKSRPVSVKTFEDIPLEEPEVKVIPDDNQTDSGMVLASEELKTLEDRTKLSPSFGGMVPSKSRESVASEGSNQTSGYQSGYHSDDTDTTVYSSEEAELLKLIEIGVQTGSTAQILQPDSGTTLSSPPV

Structure (SMILES) | IC50 (PDGFRβ) | IC50 (KDR (VEGFR2))
CCn1cc(NC(=O)Cc2ccc(Oc3ncnc4cc(OC)c(OC)cc34)cn2)cn1 [N-(1-ethyl-1H-pyrazol-4-yl)-2-[5-(6,7-dimethoxyquinazolin-4-yloxy)pyridin-2-yl]acetamide] | ~25 nM | 
COc1cc2ncnc(Oc3ccc(CC(=O)Nc4cc(C)on4)nc3)c2cc1OC [N-(5-methylisoxazol-3-yl)-2-[5-(6,7-dimethoxyquinazolin-4-yloxy)pyridin-2-yl]acetamide] | ~25 nM | ~300 nM
COc1cc2ncnc(Oc3cnc(CC(=O)Nc4cnn(C(C)C)c4)c(OC)c3)c2cc1OC [Example 8, N-(1-isopropyl-1H-pyrazol-4-yl)-2-[5-(6,7-dimethoxyquinazolin-4-yloxy)-3-methoxypyridin-2-yl]acetamide] | ~5 nM | > 5000 nM
CCn1cc(NC(=O)Cc2ncc(Oc3ncnc4cc(OC)c(OC)cc34)cc2OC)cn1 [Example 7, N-(1-ethyl-1H-pyrazol-4-yl)-2-[5-(6,7-dimethoxyquinazolin-4-yloxy)-3-methoxypyridin-2-yl]acetamide] | ~10 nM | > 3000 nM
COc1cc2ncnc(Oc3ccc(CC(=O)Nc4nc(C)c(C)s4)nc3)c2cc1OC [Example 1, N-(4,5-dimethylthiazol-2-yl)-2-[5-(6,7-dimethoxyquinazolin-4-yloxy)pyridin-2-yl]acetamide] | ~5 nM | ~2 nM
